Reference: patent publication US8703947B2, “Compounds for treatment of Alzheimer's disease” (Purdue Research Foundation, priority 2008, dated 2014)

The compounds below were run against memapsin 2 (Homo sapiens (Human), UniProt P56817) (assay: Inhibition of memapsin 2 catalytic activity toward fluorogenic substrate FS-2). Details: memapsin 2, pH 4, 37° C., 20 minutes pre-incubation, tight-binding model.
memapsin 2, sequence (P56817 46-501): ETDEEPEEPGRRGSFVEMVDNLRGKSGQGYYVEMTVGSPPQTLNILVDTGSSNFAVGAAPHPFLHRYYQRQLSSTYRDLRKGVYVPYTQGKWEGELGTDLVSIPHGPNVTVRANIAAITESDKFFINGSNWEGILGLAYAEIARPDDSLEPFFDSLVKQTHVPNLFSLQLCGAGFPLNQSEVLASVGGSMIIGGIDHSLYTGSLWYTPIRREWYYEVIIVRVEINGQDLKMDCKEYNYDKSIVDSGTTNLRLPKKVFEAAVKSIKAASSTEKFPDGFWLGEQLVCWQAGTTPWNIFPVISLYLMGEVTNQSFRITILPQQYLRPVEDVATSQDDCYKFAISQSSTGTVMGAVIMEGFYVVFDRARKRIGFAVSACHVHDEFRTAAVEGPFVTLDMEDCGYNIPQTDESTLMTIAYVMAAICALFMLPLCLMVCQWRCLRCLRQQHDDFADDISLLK
Assay type: biochemical
Protocol: Inhibition of Memapsin 1, Memapsin 2, and Cathepsin D Catalytic Activity. A substrate peptide H3N-ELDLAVEFWHDR—CO2 (SEQ ID NO:1) (used for inhibition assay of memapsin 2, memapsin 1, and cathepsin D) was dissolved at 2 mg/mL in DMSO and diluted 1:100 in 0.1 M sodium acetate, pH 4.0 just prior to assay. Inhibitor dissolved in DMSO was diluted into 0.1 M sodium acetate, pH 4.0 (1:100 dilution). A 50 μL aliquot of the inhibitor solution in pH 4 buffer was combined with 150 μL of 0.1 M sodium acetate containing 100-200 nM of memapsin 1, memapsin 2, or cathepsin D. Following a pre-incubation at 37° C., the proteolytic assay was initated by addition of 50 μl of the substrate diluted into pH 4 buffer, and incubation continued at 37° C. Aliquots were removed at time intervals, and combined with an equal volume of MALDI-TOF matrix ([…] in acetone, 20 mg/mL) and immediately spotted in duplicate onto a stainless-steel MALDI sample plate. MALDI-TOF mass spectrometry was performed on a PE Biosystems Voyager DE instrument at the Molecular Biology Resource Center on campus. The instrument was operated at 25,000 accelerating volts in positive mode with a 150 ns delay. Ions with a mass-to-charge ratio (m/z) were detected in the range of 650-2000 atomic mass units. Data were analyzed by the Voyager Data Explorer module to obtain ion intensity data for mass species of substrates and corresponding products in a given mixture. Relative product formation was calculated as the ratio of signal intensity of the product to the sum of signal intensities of both product and the corresponding substrate. Relative product formed per unit time was obtained from non-linear regression analysis of the data representing the initial 15% formation of product using the model: 1−e^−kT where k was the relative hydrolytic rate constant and T was time in seconds. Alternatively, relative hydrolytic rates were determined using a fluorogenic cleavage assay (Ermolieff, J. et al., Biochemistry, 39: 12450-12456 (2000)). Initial rates from either method were expressed relative to uninhibited controls and the inhibition constant Ki was determined by a non-linear fit to a tight-binding model of competitive inhibition (Bieth, J., Bayer—Symposium V. Proteinase Inhibitors, pp 463-469, Spinger-Varlag, Berlin (1994)). Results are shown in
Inhibition of Memapsin 2. The potencies of compounds were determined by measurement of their inhibition of memapsin 2 catalytic activity toward a fluorescent substrate. Kinetic inhibition experiments were performed using the procedure as described in Ermolieff, et al. Biochemistry 39:12450-12456 (2000), the teachings of which are incorporated hereby in their entirety. Briefly, assays were performed at pH 4, 37° C., by pre-incubation of memapsin 2 enzyme with compound for 20 minutes. Activity measure was initiated by addition of a fluorogenic substrate FS-2 (Bachem Americas, Torrance, Calif.). Fluorescent signal increase over time was measured as a rate of hydrolysis of the peptide substrate. Inhibition of hydrolytic rate was expressed relative to uninhibited controls and fit to a model for tight-binding inhibitors (J. Bieth, in “Proteinase Inhibitors,” Bayer Symposium V, 463-469, 1974).
In the case of `C[C@@H](NC(=O)c1cc(C(=O)N[C@@H](Cc2ccccc2)[C@H](O)C2Cc3ccccc3CN2)cc(N(C)S(C)(=O)=O)c1)c1ccccc1` (some centres unmarked) [GRL-0196-AL], the Ki is reported as over 10000 nM.
In the case of `Cc1csc([C@H]2CCCN2C(=O)c2cccc(C(=O)N[C@@H](Cc3ccccc3)[C@H](O)[C@@H]3NCCN(CC(C)C)C3=O)c2)n1` [GRL-0669AL], the Ki is reported as under 1000 nM.
For `C[C@@H](NC(=O)c1cc(C(=O)N[C@@H](Cc2ccccc2)[C@H](O)C2NCCN(Cc3ccccc3)C2=O)cc(N(C)S(C)(=O)=O)c1)c1ccccc1` (some centres unmarked) [Example 10], the Ki was under 10000 nM.
With `Cc1csc([C@H]2CCCN2C(=O)c2cccc(C(=O)N[C@@H](Cc3ccccc3)[C@H](O)[C@@H]3NCCN(Cc4ccccc4)C3=O)c2)n1` [GRL-0299] the Ki was under 1000 nM.
`COc1cccc(C[C@@H]2CC[C@H]([C@@H](O)CNC(=O)c3cc(C(=O)N[C@H](C)c4ccccc4)cc(N(C)S(C)(=O)=O)c3)N2C(=O)OC(C)(C)C)c1` [Comparison compound A, reference compound] was tested, and the Ki was over 1000 nM.
With `COc1ccc(CN2CCN[C@@H]([C@@H](O)[C@H](Cc3ccccc3)NC(=O)c3cccc(C(=O)N4CCC[C@@H]4c4nc(C)cs4)c3)C2=O)cc1` [GRL-0819AL] the Ki was under 1000 nM.
Compound `COc1ccc(CN2CCN[C@@H]([C@@H](O)[C@H](Cc3ccccc3)NC(=O)c3cc(C(=O)N[C@H](C)c4ccccc4)cc(N(C)S(C)(=O)=O)c3)C2=O)cc1` [GRL-0889AL] has a Ki of under 1000 nM.
In the case of `COc1cccc(CN2CCN[C@@H]([C@@H](O)[C@H](Cc3ccccc3)NC(=O)c3cccc(C(=O)N4CCC[C@@H]4c4nc(C)cs4)c3)C2=O)c1` [GRL-1069AL], the Ki is reported as under 1000 nM.
In the case of `CC(C)CN1CCN[C@@H]([C@@H](O)[C@H](Cc2ccccc2)NC(=O)c2cc(C(=O)N[C@H](C)c3ccccc3)cc(N(C)S(C)(=O)=O)c2)C1=O` [GRL-0849AL], the Ki is reported as under 1000 nM.
In the case of `Cc1nc(CN(C)C(=O)c2cccc(C(=O)N[C@@H](Cc3ccccc3)[C@H](O)C3NCCN(Cc4ccccc4)C3=O)c2)cs1` (single isomer, unassigned) [Example 11a], the Ki is reported as under 1000 nM.
Work on `COc1cccc(CN2CCN[C@@H]([C@@H](O)[C@H](Cc3ccccc3)NC(=O)c3cc(C(=O)N[C@H](C)c4ccccc4)cc(N(C)S(C)(=O)=O)c3)C2=O)c1` [GRL-1079AL] yielded a Ki of under 1000 nM.
For `Cc1nc(CN(C)C(=O)c2cccc(C(=O)N[C@@H](Cc3ccccc3)[C@H](O)C3NCCN(Cc4ccccc4)C3=O)c2)cs1` (single isomer, unassigned) [Example 11b], the Ki was over 10000 nM.
`COc1cccc(C[C@@H]2CC[C@H]([C@@H](O)CNC(=O)c3cc(C(=O)N[C@H](C)c4ccccc4)cc(N(C)S(C)(=O)=O)c3)N2)c1` [Comparison compound B, reference compound] showed a Ki of over 10000 nM.

What follows are compounds tested on Aβ production in Chinese hamster ovary cells that over-express human APP695 with the London and Swedish mutations (assay: Cellular Aβ IC50 determination (Aβ40 sandwich ELISA)). Details: Cricetulus griseus; Aβ40 content after 24 h incubation, CHO cells over-expressing human APP695.
Assay type: cell-based
Protocol: Cellular Aβ IC50 Determinations. The potency of compounds against memapsin 2 catalytic activity was determined in a cellular assay of Aβ production. […] Chinese hamster ovary cells that over-express human APP695 with the London and Swedish mutations were seeded in multi-well plates at 10% confluency. Compounds are dissolved in DMSO to concentrations near 1 mM, and diluted into culture media to a final concentration near 4 μM (final 0.4% DMSO). Compounds were diluted serially and applied to cells in multi-well plates 48 h after seeding. Incubation was continued in 5% CO2 at 37 degrees C. for 24 h. Aliquots were removed and assayed for Aβ40 content using a sandwich ELISA (BioSource International). Amount of Aβ40 over the range of concentration of compounds, relative to control incubations, were fit to a 4-parameter IC50 model.
With `Cc1nc(CN(C)C(=O)c2cccc(C(=O)N[C@@H](Cc3ccccc3)[C@H](O)C3NCCN(Cc4ccccc4)C3=O)c2)cs1` (single isomer, unassigned) [Example 11a] the IC50 was under 10 µM.
